Test results taken from article PMC9571063 (Molecules, 2022).
Read-outs that look alike come from different tables or passages of the source.

Legend:
[1] = target: T1, PIK3CA(M1043I) (Homo sapiens, UniProt P42336, M1043I); assay: KINOMEscan; type: binding; settings: read-out: Percent Control
T1 construct: purchased Eurofins DiscoverX KINOMEscan (scanMAX 468)

[2] = target: T2, MLCK (Homo sapiens, UniProt Q32MK0); assay: KINOMEscan; type: binding; settings: read-out: Percent Control
T2 construct: purchased Eurofins DiscoverX KINOMEscan (scanMAX 468)

[3] = target: T3, CAMK1 (Homo sapiens, UniProt Q14012); assay: KINOMEscan; type: binding; settings: read-out: Percent Control
T3 construct: purchased Eurofins DiscoverX KINOMEscan (scanMAX 468)

[4] = target: T4, FGFR1 (Homo sapiens, UniProt P11362); assay: KINOMEscan; type: binding; settings: read-out: Percent Control
T4 construct: purchased Eurofins DiscoverX KINOMEscan (scanMAX 468)

[5] = target: T5, CAMK2D (Homo sapiens, UniProt Q13557); assay: KINOMEscan; type: binding; settings: read-out: Percent Control
T5 construct: purchased Eurofins DiscoverX KINOMEscan (scanMAX 468)

[6] = target: T6, PIK3C2B (Homo sapiens, UniProt O00750); assay: KINOMEscan; type: binding; settings: read-out: Percent Control
T6 construct: purchased Eurofins DiscoverX KINOMEscan (scanMAX 468)

[7] = target: T7, MAP3K1 (Homo sapiens, UniProt Q13233); assay: KINOMEscan; type: binding; settings: read-out: Percent Control
T7 construct: purchased Eurofins DiscoverX KINOMEscan (scanMAX 468)

[8] = target: T8, HPK1 (Homo sapiens, UniProt Q92918); assay: KINOMEscan; type: binding; settings: read-out: Percent Control
T8 construct: purchased Eurofins DiscoverX KINOMEscan (scanMAX 468)

[9] = target: T9, EGFR(G719S) (Homo sapiens, UniProt P00533, G719S); assay: KINOMEscan; type: binding; settings: read-out: Percent Control
T9 construct: purchased Eurofins DiscoverX KINOMEscan (scanMAX 468)

[10] = target: T10, WNK3 (Homo sapiens, UniProt Q9BYP7); assay: KINOMEscan; type: binding; settings: read-out: Percent Control
T10 construct: purchased Eurofins DiscoverX KINOMEscan (scanMAX 468)

[11] = target: T11, RIPK1 (Homo sapiens, UniProt Q13546); assay: KINOMEscan; type: binding; settings: read-out: Percent Control
T11 construct: purchased Eurofins DiscoverX KINOMEscan (scanMAX 468)

[12] = target: T12, MYO3A (Homo sapiens, UniProt Q8NEV4); assay: KINOMEscan; type: binding; settings: read-out: Percent Control
T12 construct: purchased Eurofins DiscoverX KINOMEscan (scanMAX 468)

[13] = target: T13, MAPKAPK5 (Homo sapiens, UniProt Q8IW41); assay: KINOMEscan; type: binding; settings: read-out: Percent Control
T13 construct: purchased Eurofins DiscoverX KINOMEscan (scanMAX 468)

[14] = target: T14, RIOK2 (Homo sapiens, UniProt Q9BVS4); assay: KINOMEscan; type: binding; settings: read-out: Percent Control
T14 construct: purchased Eurofins DiscoverX KINOMEscan (scanMAX 468)

[15] = target: T15, PHKG1 (Homo sapiens, UniProt Q16816); assay: KINOMEscan; type: binding; settings: read-out: Percent Control
T15 construct: purchased Eurofins DiscoverX KINOMEscan (scanMAX 468)

[16] = target: T16, NEK7 (Homo sapiens, UniProt Q8TDX7); assay: KINOMEscan; type: binding; settings: read-out: Percent Control
T16 construct: purchased Eurofins DiscoverX KINOMEscan (scanMAX 468)

[17] = target: T17, STK36 (Homo sapiens, UniProt Q9NRP7); assay: KINOMEscan; type: binding; settings: read-out: Percent Control
T17 construct: purchased Eurofins DiscoverX KINOMEscan (scanMAX 468)

[18] = test system: HCT116; parameters: method as in ref 14 (a number printed in a supplementary file, which may have a reference list of its own: not looked up in the article's list); settings: DB18[a], footnote not given; read-out: Cytotoxic studies IC50 HCT116; cited from earlier work
[19] = target: T18, ROCK2 (Homo sapiens, UniProt O75116); assay: KINOMEscan; type: binding; settings: read-out: Percent Control
T18 construct: purchased Eurofins DiscoverX KINOMEscan (scanMAX 468)

[20] = target: T19, CDKL5 (Homo sapiens, UniProt O76039); assay: KINOMEscan; type: binding; settings: read-out: Percent Control
T19 construct: purchased Eurofins DiscoverX KINOMEscan (scanMAX 468)

[21] = target: T20, JNK1 (Homo sapiens, UniProt P45983); assay: KINOMEscan; type: binding; settings: read-out: Percent Control
T20 construct: purchased Eurofins DiscoverX KINOMEscan (scanMAX 468)

[22] = target: T21, ITK (Homo sapiens, UniProt Q08881); assay: KINOMEscan; type: binding; settings: read-out: Percent Control
T21 construct: purchased Eurofins DiscoverX KINOMEscan (scanMAX 468)

[23] = target: T22, MET (Homo sapiens, UniProt P08581); assay: KINOMEscan; type: binding; settings: read-out: Percent Control
T22 construct: purchased Eurofins DiscoverX KINOMEscan (scanMAX 468)
T22 sequence (P08581 25-1390): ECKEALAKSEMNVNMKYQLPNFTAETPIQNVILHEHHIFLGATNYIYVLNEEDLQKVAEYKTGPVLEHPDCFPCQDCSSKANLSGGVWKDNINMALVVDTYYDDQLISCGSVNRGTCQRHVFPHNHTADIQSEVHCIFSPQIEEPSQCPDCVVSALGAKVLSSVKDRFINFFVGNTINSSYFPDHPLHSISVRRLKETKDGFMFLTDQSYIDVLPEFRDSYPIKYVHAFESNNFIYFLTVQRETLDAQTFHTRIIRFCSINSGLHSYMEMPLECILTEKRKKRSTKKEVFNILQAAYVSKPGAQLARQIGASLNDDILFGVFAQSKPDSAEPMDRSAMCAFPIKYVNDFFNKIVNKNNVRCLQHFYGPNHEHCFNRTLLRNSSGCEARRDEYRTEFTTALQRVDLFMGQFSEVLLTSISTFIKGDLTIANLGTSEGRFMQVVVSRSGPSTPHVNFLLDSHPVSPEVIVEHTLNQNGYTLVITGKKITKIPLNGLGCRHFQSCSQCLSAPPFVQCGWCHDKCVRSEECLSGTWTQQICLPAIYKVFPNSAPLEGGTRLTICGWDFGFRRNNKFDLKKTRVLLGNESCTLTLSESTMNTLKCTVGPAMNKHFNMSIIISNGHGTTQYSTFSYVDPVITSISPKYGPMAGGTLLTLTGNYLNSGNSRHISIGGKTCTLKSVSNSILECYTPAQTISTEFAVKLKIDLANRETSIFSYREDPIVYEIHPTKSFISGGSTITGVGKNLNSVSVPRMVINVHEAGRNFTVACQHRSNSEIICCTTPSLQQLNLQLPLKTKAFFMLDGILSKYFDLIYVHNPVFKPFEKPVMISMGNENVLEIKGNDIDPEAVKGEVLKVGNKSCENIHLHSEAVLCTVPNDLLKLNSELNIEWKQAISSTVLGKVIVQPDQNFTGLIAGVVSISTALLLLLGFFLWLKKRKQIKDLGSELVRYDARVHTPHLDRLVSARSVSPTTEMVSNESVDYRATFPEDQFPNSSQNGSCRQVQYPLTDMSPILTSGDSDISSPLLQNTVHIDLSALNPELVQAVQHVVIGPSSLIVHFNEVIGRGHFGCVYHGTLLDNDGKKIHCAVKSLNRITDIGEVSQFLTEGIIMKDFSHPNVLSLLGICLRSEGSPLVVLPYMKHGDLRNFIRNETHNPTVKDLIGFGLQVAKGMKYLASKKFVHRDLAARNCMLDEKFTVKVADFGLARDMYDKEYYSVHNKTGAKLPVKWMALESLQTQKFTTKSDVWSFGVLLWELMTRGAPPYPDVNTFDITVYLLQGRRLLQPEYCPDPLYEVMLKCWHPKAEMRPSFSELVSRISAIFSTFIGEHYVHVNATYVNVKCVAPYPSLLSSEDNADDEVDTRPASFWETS

[24] = target: T23, EGFR(L747-E749del, A750P) (Homo sapiens, UniProt P00533, A750P/DEL747-749); assay: KINOMEscan; type: binding; settings: read-out: Percent Control
T23 construct: purchased Eurofins DiscoverX KINOMEscan (scanMAX 468)
T23 sequence (P00533 with tags, fused parts or gaps DEL747-749/A750P limits assumed): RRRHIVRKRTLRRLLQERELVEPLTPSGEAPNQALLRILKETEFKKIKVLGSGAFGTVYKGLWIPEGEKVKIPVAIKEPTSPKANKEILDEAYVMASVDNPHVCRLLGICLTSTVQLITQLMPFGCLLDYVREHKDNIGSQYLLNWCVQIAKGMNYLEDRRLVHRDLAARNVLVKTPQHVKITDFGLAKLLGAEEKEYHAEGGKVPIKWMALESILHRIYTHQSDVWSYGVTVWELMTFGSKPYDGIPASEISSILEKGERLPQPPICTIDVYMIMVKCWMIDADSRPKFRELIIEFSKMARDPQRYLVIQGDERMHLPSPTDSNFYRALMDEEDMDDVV

[25] = target: T24, KIT(V559D) (Homo sapiens, UniProt P10721, V559D); assay: KINOMEscan; type: binding; settings: read-out: Percent Control
T24 construct: purchased Eurofins DiscoverX KINOMEscan (scanMAX 468)

[26] = target: T25, FLT3(R834Q) (Homo sapiens, UniProt P36888, R834Q); assay: KINOMEscan; type: binding; settings: read-out: Percent Control
T25 construct: purchased Eurofins DiscoverX KINOMEscan (scanMAX 468)

[27] = target: T26, GRK2 (Homo sapiens, UniProt P25098); assay: KINOMEscan; type: binding; settings: read-out: Percent Control
T26 construct: purchased Eurofins DiscoverX KINOMEscan (scanMAX 468)

[28] = target: T27, PIK3CA(H1047Y) (Homo sapiens, UniProt P42336, H1047Y); assay: KINOMEscan; type: binding; settings: read-out: Percent Control
T27 construct: purchased Eurofins DiscoverX KINOMEscan (scanMAX 468)
T27 sequence (P42336 whole entry H1047Y): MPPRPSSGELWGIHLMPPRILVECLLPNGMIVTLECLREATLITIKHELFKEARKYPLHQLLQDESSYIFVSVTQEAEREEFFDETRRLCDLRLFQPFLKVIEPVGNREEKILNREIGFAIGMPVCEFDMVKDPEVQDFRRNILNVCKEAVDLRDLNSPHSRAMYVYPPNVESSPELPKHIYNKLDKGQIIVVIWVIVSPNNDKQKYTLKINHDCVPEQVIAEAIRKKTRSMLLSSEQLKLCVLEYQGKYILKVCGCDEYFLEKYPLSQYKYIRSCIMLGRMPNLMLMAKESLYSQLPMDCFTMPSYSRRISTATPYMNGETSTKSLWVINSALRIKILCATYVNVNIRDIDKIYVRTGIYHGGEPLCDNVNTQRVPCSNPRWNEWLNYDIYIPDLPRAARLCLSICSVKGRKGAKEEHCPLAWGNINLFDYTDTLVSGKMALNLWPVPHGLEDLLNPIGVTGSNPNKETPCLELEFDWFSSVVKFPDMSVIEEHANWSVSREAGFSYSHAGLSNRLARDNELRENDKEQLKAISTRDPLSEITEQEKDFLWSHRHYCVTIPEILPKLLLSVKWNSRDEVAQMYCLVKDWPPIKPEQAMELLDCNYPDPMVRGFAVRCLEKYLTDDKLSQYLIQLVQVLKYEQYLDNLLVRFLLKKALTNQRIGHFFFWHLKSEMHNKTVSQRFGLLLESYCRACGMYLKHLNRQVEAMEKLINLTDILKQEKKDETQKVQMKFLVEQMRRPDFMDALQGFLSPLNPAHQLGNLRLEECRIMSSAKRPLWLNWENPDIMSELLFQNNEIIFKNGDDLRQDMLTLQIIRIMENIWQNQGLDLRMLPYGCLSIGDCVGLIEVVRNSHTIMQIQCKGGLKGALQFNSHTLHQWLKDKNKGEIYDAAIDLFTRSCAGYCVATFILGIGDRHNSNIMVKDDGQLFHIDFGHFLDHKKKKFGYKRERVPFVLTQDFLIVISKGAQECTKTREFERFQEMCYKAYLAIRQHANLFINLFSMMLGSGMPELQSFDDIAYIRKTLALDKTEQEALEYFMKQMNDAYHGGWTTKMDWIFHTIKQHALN

[29] = target: T28, VEGFR2 (Homo sapiens, UniProt P35968); assay: KINOMEscan; type: binding; settings: read-out: Percent Control
T28 construct: purchased Eurofins DiscoverX KINOMEscan (scanMAX 468)

[30] = target: T29, TSSK3 (Homo sapiens, UniProt Q96PN8); assay: KINOMEscan; type: binding; settings: read-out: Percent Control
T29 construct: purchased Eurofins DiscoverX KINOMEscan (scanMAX 468)

[31] = target: T30, S6K1 (Homo sapiens, UniProt P23443); assay: KINOMEscan; type: binding; settings: read-out: Percent Control
T30 construct: purchased Eurofins DiscoverX KINOMEscan (scanMAX 468)

[32] = target: T31, RET(V804M) (Homo sapiens, UniProt P07949, V804M); assay: KINOMEscan; type: binding; settings: read-out: Percent Control
T31 construct: purchased Eurofins DiscoverX KINOMEscan (scanMAX 468)

[33] = target: T32, NEK11 (Homo sapiens, UniProt Q8NG66); assay: KINOMEscan; type: binding; settings: read-out: Percent Control
T32 construct: purchased Eurofins DiscoverX KINOMEscan (scanMAX 468)

[34] = target: T33, BRSK2 (Homo sapiens, UniProt Q8IWQ3); assay: KINOMEscan; type: binding; settings: read-out: Percent Control
T33 construct: purchased Eurofins DiscoverX KINOMEscan (scanMAX 468)

[35] = target: T34, TLK2 (Homo sapiens, UniProt Q86UE8); assay: KINOMEscan; type: binding; settings: read-out: Percent Control
T34 construct: purchased Eurofins DiscoverX KINOMEscan (scanMAX 468)
T34 sequence (Q86UE8 whole entry): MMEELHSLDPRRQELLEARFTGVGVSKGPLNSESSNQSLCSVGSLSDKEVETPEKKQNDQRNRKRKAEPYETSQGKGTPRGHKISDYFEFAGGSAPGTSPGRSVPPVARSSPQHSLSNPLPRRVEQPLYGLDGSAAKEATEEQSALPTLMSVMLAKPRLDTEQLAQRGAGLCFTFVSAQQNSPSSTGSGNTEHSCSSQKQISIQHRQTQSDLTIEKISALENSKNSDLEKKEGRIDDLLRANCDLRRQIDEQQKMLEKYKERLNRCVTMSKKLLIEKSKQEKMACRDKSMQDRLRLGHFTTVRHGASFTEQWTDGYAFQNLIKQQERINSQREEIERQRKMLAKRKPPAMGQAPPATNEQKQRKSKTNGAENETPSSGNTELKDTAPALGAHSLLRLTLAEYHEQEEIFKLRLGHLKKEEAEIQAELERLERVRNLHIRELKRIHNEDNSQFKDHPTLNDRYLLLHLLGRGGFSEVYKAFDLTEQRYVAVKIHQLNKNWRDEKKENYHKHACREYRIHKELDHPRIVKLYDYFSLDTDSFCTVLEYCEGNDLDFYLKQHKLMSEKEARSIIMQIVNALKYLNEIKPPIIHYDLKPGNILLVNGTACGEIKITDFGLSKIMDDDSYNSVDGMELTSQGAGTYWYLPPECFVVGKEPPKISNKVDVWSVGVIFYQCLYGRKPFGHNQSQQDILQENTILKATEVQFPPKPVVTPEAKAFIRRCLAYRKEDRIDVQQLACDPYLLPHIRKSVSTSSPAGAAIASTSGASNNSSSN

[36] = test system: FLT3(ITD); assay: KINOMEscan; type: binding, human; settings: 1 μM
[37] = target: T35, MST1R (Homo sapiens, UniProt Q04912); assay: KINOMEscan; type: binding; settings: read-out: Percent Control
T35 construct: purchased Eurofins DiscoverX KINOMEscan (scanMAX 468)

[38] = target: T36, ULK1 (Homo sapiens, UniProt O75385); assay: KINOMEscan; type: binding; settings: read-out: Percent Control
T36 construct: purchased Eurofins DiscoverX KINOMEscan (scanMAX 468)
T36 sequence (O75385 whole entry): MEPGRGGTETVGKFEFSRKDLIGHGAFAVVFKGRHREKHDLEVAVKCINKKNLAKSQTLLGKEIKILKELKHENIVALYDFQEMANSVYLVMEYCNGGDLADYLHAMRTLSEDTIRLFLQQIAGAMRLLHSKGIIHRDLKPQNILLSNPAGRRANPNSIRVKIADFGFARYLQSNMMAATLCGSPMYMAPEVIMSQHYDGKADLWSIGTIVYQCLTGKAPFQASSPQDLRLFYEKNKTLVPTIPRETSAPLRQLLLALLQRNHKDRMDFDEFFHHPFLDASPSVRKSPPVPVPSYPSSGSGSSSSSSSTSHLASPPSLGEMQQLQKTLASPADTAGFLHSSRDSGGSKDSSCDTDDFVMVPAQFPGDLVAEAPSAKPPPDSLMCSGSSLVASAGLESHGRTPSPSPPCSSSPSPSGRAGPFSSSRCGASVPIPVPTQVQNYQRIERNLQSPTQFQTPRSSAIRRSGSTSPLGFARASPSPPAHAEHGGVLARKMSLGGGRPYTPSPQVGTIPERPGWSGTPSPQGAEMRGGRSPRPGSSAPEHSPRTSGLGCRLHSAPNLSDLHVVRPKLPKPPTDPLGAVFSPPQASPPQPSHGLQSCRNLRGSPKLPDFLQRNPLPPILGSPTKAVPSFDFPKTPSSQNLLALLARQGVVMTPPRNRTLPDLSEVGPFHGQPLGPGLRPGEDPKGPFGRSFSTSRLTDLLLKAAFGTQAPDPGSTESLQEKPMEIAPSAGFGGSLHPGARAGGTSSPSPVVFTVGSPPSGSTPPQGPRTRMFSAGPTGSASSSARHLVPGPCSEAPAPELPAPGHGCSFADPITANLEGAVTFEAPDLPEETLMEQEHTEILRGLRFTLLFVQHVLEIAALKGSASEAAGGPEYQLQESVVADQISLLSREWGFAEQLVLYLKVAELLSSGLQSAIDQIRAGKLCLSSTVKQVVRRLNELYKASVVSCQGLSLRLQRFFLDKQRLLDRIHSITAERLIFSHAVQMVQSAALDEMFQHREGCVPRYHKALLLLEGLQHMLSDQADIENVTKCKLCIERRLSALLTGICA

[39] = target: T37, PIP5K1A (Homo sapiens, UniProt Q99755); assay: KINOMEscan; type: binding; settings: read-out: Percent Control
T37 construct: purchased Eurofins DiscoverX KINOMEscan (scanMAX 468)

[40] = target: T38, PIP5K2C (Homo sapiens, UniProt Q8TBX8); assay: KINOMEscan; type: binding; settings: read-out: Percent Control
T38 construct: purchased Eurofins DiscoverX KINOMEscan (scanMAX 468)

[41] = target: T39, Hs_PIM1 (Homo sapiens, UniProt P11309); parameters: method as in ref 13 (a number printed in a supplementary file, which may have a reference list of its own: not looked up in the article's list); settings: DB18, cited from earlier work
T39 construct: host or cells: Sf9 insect cells (baculovirus)
T39 sequence (P11309 whole entry): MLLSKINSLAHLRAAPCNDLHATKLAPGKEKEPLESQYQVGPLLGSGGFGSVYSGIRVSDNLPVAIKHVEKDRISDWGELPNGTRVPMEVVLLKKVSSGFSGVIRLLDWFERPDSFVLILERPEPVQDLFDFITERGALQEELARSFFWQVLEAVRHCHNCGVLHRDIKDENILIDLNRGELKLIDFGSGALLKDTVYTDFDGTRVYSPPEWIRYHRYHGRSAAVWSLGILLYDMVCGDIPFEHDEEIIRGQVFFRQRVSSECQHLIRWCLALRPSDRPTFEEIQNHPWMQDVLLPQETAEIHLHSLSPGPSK

T1 sequence (P42336 whole entry M1043I): as the sequence (P42336 whole entry H1047Y) above, with M1043I, Y1047H counted along it

Cc1ccc(-n2cc(COc3cccc4cnc(Nc5cccc(Cl)c5)nc34)nn2)c([N+](=O)[O-])c1 [DB18]
remaining binding at 1 µM [1]: 100%
remaining binding at 1 µM [2]: 89%
remaining binding at 1 µM [3]: 100%
remaining binding at 1 µM [4]: 100%
remaining binding at 1 µM [5]: 100%
remaining binding at 1 µM [6]: 100%
remaining binding at 1 µM [7]: 98%
remaining binding at 1 µM [8]: 100%
remaining binding at 1 µM [9]: 100%
remaining binding at 1 µM [10]: 100%
remaining binding at 1 µM [11]: 100%
remaining binding at 1 µM [12]: 100%
remaining binding at 1 µM [13]: 99%
remaining binding at 1 µM [14]: 100%
remaining binding at 1 µM [15]: 100%
remaining binding at 1 µM [16]: 85%
remaining binding at 1 µM [17]: 100%
IC50 [18]: > 25 µM
remaining binding at 1 µM [19]: 100%
remaining binding at 1 µM [20]: 100%
remaining binding at 1 µM [21]: 93%
remaining binding at 1 µM [22]: 100%
remaining binding at 1 µM [23]: 95%
remaining binding at 1 µM [24]: 93%
remaining binding at 1 µM [25]: 100%
remaining binding at 1 µM [26]: 87%
remaining binding at 1 µM [27]: 94%
remaining binding at 1 µM [28]: 96%
remaining binding at 1 µM [29]: 99%
remaining binding at 1 µM [30]: 96%
remaining binding at 1 µM [31]: 94%
remaining binding at 1 µM [32]: 96%
remaining binding at 1 µM [33]: 100%
remaining binding at 1 µM [34]: 97%
remaining binding at 1 µM [35]: 100%
Percent Control [36]: 62 % Ctrl
remaining binding at 1 µM [37]: 100%
remaining binding at 1 µM [38]: 100%
remaining binding at 1 µM [39]: 100%
remaining binding at 1 µM [40]: 28%
% of residual activity Hs_PIM1 ([41]; 1 µM): 97%
% of residual activity Hs_PIM1 ([41]; 10 µM): 81%
